Measurements from US20060024691A1, “Novel pathways in the etiology of cancer” (Buck Institute for Age Research, priority 2004, published 2006).
Entries after “also recorded” stand apart in the source; their conditions may differ. Read-outs that look alike come from different tables or passages of the source. Peptide text beside a SMILES is read from it. * marks the point of attachment. Cbz = O=C(OCc1ccccc1)*

Assays:
[1] = test system: ERα Ser-167 (67 kD ERα and 52 kD ERα variant); assay type: cell-based, human; conditions: for block of K3-induced p-Ser-167 ERα formation: MCF7 cells, co-treatment with K3
Procedure: (§1) Human breast cancer cell lines MCF7 and T47D were obtained from the American Type Culture Collection (ATCC). MCF7 cells were maintained in Dulbecco's Modification of Eagle's Medium (Cellgro) supplemented with 10% fetal bovine serum (Cellgro), 1% penicillin/streptomycin (Cellgro) and 10 μg/ml insulin (Sigma). T47D cells were maintained in RPMI (Cellgro) supplemented with 10% fetal bovine serum, 1% penicillin/streptomycin and 10 μg/ml insulin. Treatment conditions for both cell lines involved plating ˜1×10^6 cells in normal media onto 10 cm dishes, attachment and growth for 24 hours followed by a change to estrogen-free culture conditions (phenol red-free DME H-16 supplemented with 10% charcoal stripped serum, 1% penicillin/streptomycin and 10 μg/ml insulin) for an additional 24 hours. Cells were then treated as indicated for 30 minutes before extract preparation. Indicated conditions involved 30 minute pretreatments.
(§2) Following aspiration of the media and one ice cold PBS wash, cells growing on 10 cm dishes were harvested using a cell scraper and 0.7 ml of ice cold cell lyses buffer ([…], 1.5 mM MgCl2, […] KCl, 1 mM DTT, […] NaFl, 5% glycerol, 0.45% NP40 (Igepal, Sigma) and mincomplete protease inhibitors (Roche)). […] For preparation of high-salt nuclear extracts (nucleoplasm), isolated nuclei were resuspended for 20 minutes in ice cold extraction buffer (0.4 M NaCl, 25 mM Tris pH 7.5, 1 mM DTT, 20% glycerol, 10 mM NaFl and min-complete protease inhibitors (Roche)) followed by a 4° C. centrifugation at 16,000×g for 15 minutes.
(§3) Equal amounts of protein from the various extracts were mixed with 2× SDS sample buffer (125 mM Tris pH6.8, 20% glycerol, 2% SDS, 0.28 M 2-mercaptoethanol and0.5% Bromphenol Blue), heated for 5 minutes at 90° C. and electrophoresed on NuPAGE 4-12% Bis-Tris gels (Invitrogen) using NuPAGE MOPS SDS running buffer (Invitrogen) and full range Rainbow recombinant protein molecular weight markers (Amersham Pharmacia). […] Membranes were then blocked for 30 minutes in blocking buffer (150 mM NaCl, 20 mM Tris pH 7.5, 0.3% Tween-20 and 4% Nonfat dry milk powerby weight).

[2] = test system: ERα Ser-118 (67 kD ERα and 52 kD ERα variant); assay type: cell-based, human; conditions: for Ser-118 phosphorylation of ER induced by treatment: MCF-7/T47D cells, charcoal-stripped media, 30 min, menadione 100 μM, estradiol 10 nM, other quinones at equitoxic doses
Procedure: as §1, §2, §3

ERK1/ERK2 = experiment: MAPK activation: ERK1/ERK2 phosphorylation, Western blot; assay type: cell-based, human; conditions: MCF7 cells; for effect on K3 induced phospho-ERK1/2 formation (MAPK activation): co-treatment with K3
Procedure: as §1
For preparation of high-salt nuclear extracts (nucleoplasm), isolated nuclei were resuspended for 20 minutes in ice cold extraction buffer (0.4 M NaCl, 25 mM Tris pH 7.5, 1 mM DTT, 20% glycerol, 10 mM NaFl and min-complete protease inhibitors (Roche)) followed by a 4° C. centrifugation at 16,000×g for 15 minutes.
Membranes were then blocked for 30 minutes in blocking buffer (150 mM NaCl, 20 mM Tris pH 7.5, 0.3% Tween-20 and 4% Nonfat dry milk powerby weight).

NF-κB p65 = NF-κB p65 DNA-binding (TransAM assay); assay type: cell-based, human; conditions: ER-positive cells, 10 μM, 30 min
Procedure: (§4) Quantitative p50 and p65 NFκB DNA-binding were also determined using ELISA based Trans-AMTM assays in accordance with the manufacturer's instructions (ActiveMotif; Carlsbad, Calif.). In these commercial kits, a duplexed NFκB oligonucleotide containing the same κB consensus sequence described for the EMSA assay above is attached to the surface of 96-well plates. Activated NFκB in tumor or nuclear extracts that is first bound to the attached oligonucleotide is specifically and quantitatively detected by subsequent incubation with p50 or p65 specific antibody followed by an enzyme (HRP)-linked secondary for colorimetric (OD450 nm absorbance) scoring. Standard curves to establish the linear assay range for Trans-AMTM determinations of p50 and p65 NFκB DNA-binding activities were performed using graded amounts of control (IL-1 treated) HeLa cell nuclear extracts (0.625 to 10 μg/well) and for comparison with a panel of nuclear extracts from six human breast cancer cell lines (MCF-7, T47D, BT474, MCF-7/HER2, SkBr3, MDA-231).

NFκB = NFκB DNA-binding by EMSA, nuclear extracts of menadione treated MCF-7 cells; assay type: cell-based, human; conditions: 30 min pretreatment: MG-132 25 μM, PS-341 5 μM, PDTC 100 μM, PA 50 μM; then menadione 100 μM 30 min
Procedure: (§5) PS-341 was kindly provided by Millennium Pharmaceuticals Inc. (Cambridge, Mass.). […] For assessment of combined treatment effects on cell viability, 2×10^4 cells (MCF-7, MCF-7/HER2, BT474) grown in 24-well plates were first treated with tamoxifen (dissolved in ethanol) and/or parthenolide (dissolved in DMSO); for the combination treatment pathenolide was added 4 h before addition of tamoxifen. Cell viability was measured 18 h after tamoxifen treatment using the sulforhodamine B (SRB) assay (Skehan, et al. 1990). Briefly, cells fixed with trichloroacetic acid were stained for 30 min with 0.4% SRB dissolved in 1% acetic acid. Unbound dye was removed by four washes with 1% acetic acid, and protein-bound dye was extracted with 10 mM unbuffered Tris base [tris(hydroxymethyl)aminomethane] for determination of optical density at 564 nm.
(§6) Fractionation of control and treated cells into cytoplasmic and nuclear extracts was performed as previously described (Dignam et al., 1983), with minor modification. Cells harvested on ice were washed twice with cold PBS, scraped and resuspended in 1.0 ml hypotonic buffer (20 mM HEPES, pH 7.0; 10 mM KCl; 1 mM MgCl2; 0.1% Triton X-100; 20% glycerol; 0.5 mM DTT) containing a cocktail of protease inhibitors (Mini CompleteTM protease inhibitors, Roche Diagnostics, Mannheim, Germany). The harvested cells were Dounce homogenized on ice, the mixture centrifuged at 3,000 rpm at 4° C. (5 min), and the cytoplasmic fraction separated from the nuclear pellet which was resuspended in elution buffer (20 mM HEPES, pH 7.0; 10 mM KCl; 1 mM MgCl2; 0.42 M NaCl; 0.1% Triton X-100; 20% glycerol; 0.5 mM DTT), supplemented with protease inhibitors. After 20 min at 4° C. the buffered mixture was centrifuged at 14,000 rpm at 4° C. (10 min) to obtain solubilized nuclear extracts which were then stored in aliquots at −80° C. after protein determination (Bradford; BioRad, Hercules, Calif.) and for subsequent NFkB DNA-binding assays.
NFκB DNA-binding activity was measured by two different techniques. Analogous to previous tumor extract scoring of Sp1 DNA-binding protein (Quong et al., 2002), total specific NFκB DNA-binding protein was determined by electrophoretic morbility shift assay (EMSA) as follows. A duplexed oligonucleotide probe (Promega, Madison, Wis.) with sense strand containing the decameric κB consensus binding sequence (underlined) 5′-[…]-3′(SEQ ID NO:4) was end-labeled with [γ-P32]ATP (PerkinElmer, Boston, Mass.) using T4 polynucleotide kinase (Promega, Madison, Wis.) and purified with G-50 Sephadex Bio-Spin columns (BioRad, Hercules, Calif.). […]

NF-κB p50 = NF-κB p50 DNA-binding (TransAM assay); assay type: cell-based, human; conditions: ER-positive cells, 10 μM, 30 min
Procedure: as §4

[3] = test system: p50 and p65 NFκB subunits; experiment: Immunoblot of nuclear p50 and p65 NFκB subunits in MCF-7 cells; assay type: cell-based, human; conditions: MCF-7; MG-132 25 μM, PS-341 5 μM, PDTC 100 μM, PA 50 μM
Procedure: as §5, §6
Antibodies against p50 NFκB, p65 NFκB, IκB, and β-actin proteins were commercially obtained (Santa Cruz Biotechnology, Santa Cruz, Calif.; and Abcam Inc., Cambridge, Mass.). […]; 4% SDS; 20% glycerol; and 10% 2-mercaptoethanol) and resolved by electrophoresis in 4-12% Bis-Tris SDS gradient gels in morpholinepropane sulfonic acid (MOPS) buffer. Separated proteins were transferred onto polyvinylidene difluoride membranes (Millipore Co., Billerica, Mass.), blocked with 5% non-fat milk in PBS containing 0.1% Tween-20, and membranes immunoblotted with the indicated antibodies in blocking solution. […]

BT474 cells = conditions: 5-7 days, concentrations approaching 1000 nM; cited from earlier work
MCF-7/HER2 cells = conditions: 5-7 days, concentrations approaching 1000 nM; cited from earlier work
MCF-7 cells = conditions: 5-7 days, concentrations approaching 1000 nM; cited from earlier work

C[C@]12CC[C@@H]3c4ccc(O)c(O)c4CC[C@H]3[C@@H]1CCC2=O [4-OHE, 4-hydroxyestrone]
Ser-167 phosphorylation of ERα induced by treatment ([1]; MCF7 nuclear extracts, 30 min): induced Ser-118 and Ser-167 phosphorylation of the 52 kD ERα nuclear variant | Ser-118 phosphorylation of ER induced by treatment [2]: induced Ser-118 and Ser-167 phosphorylation of the 52 kD ERα nuclear variant | ERK1/ERK2 phosphorylation induced by treatment (ERK1/ERK2; 30 minutes): phosphorylating ERK1/2

COC1=C(OC)C(=O)c2ccccc2C1=O [DMNQ]
Ser-118 phosphorylation of ER induced by treatment [2]: no Ser˜118 phosphorylation

CC(C)C[C@@H](C=O)NC(=O)[C@H](CC(C)C)NC(=O)[C@H](CC(C)C)NC(=O)OCc1ccccc1 [MG-132] (Cbz-Leu-Leu-Leu-aldehyde)
decrease in the DNA-binding of p65 subunit (NF-κB p65): 60% | inhibition of menadione-induced NFκB DNA-binding / activation (NFκB): complete inhibition; also recorded: completely inhibited | decrease in the DNA-binding of p50 subunit (NF-κB p50): 60% | nuclear p50 and p65 NFκB subunit content, inhibitor pretreatment before menadione [3]: marked reductions

CC(=O)N[C@@H](CS)C(=O)O [NAC, N-acetyl cysteine]
block of K3-induced p-Ser-167 ERα formation [1]: blocked | block of K3-induced p-Ser-167 ERα formation ([1]; listed as N-acetyl cysteine): effectively block | effect on K3 induced phospho-ERK1/2 formation (MAPK activation) (ERK1/ERK2): blocked; also recorded: completely block | effect on K3 induced phospho-ERK1/2 formation (MAPK activation) (ERK1/ERK2; listed as N-acetyl cysteine): without inhibiting MAPK activity

S=C(S)N1CCCC1 [PDTC, pyrrolidine dithiocarbamate]
inhibition of menadione-induced NFκB DNA-binding / activation (NFκB): complete inhibition | nuclear p50 and p65 NFκB subunit content, inhibitor pretreatment before menadione [3]: marked reductions

CC(C)C[C@H](NC(=O)[C@H](Cc1ccccc1)NC(=O)c1cnccn1)B(O)O [PS-341]
inhibition of menadione-induced NFκB DNA-binding / activation (NFκB): complete inhibition; also recorded: completely inhibited | nuclear p50 and p65 NFκB subunit content, inhibitor pretreatment before menadione [3]: marked reductions

C[S+]([O-])c1ccc(-c2nc(-c3ccncc3)c(-c3ccc(F)cc3)[nH]2)cc1 (stereo not drawn) [SB203580]
block of K3-induced p-Ser-167 ERα formation [1]: no affect

N#CC(=C(/N)Sc1ccccc1N)/C(C#N)=C(\N)Sc1ccccc1N [U0126]
effect on K3 induced phospho-ERK1/2 formation (MAPK activation) (ERK1/ERK2): only minimal activation detectable

O=c1oc2ccccc2c(O)c1Cc1c(O)c2ccccc2oc1=O [dicumarol]
block of K3-induced p-Ser-167 ERα formation [1]: virtually complete inhibition; also recorded: effectively block | inhibition of K3-induced p-Ser-118 ERα ([2]; MCF7 cells, dicumarol added concurrently with K3): at least 75%

O=C1C=CC(=O)C=C1 [p-benzoquinone]
Ser-118 phosphorylation of ER induced by treatment [2]: no Ser˜118 phosphorylation

CC/C(=C(\c1ccccc1)c1ccc(OCCN(C)C)cc1)c1ccccc1 [tamoxifen, [Z]-1-[p-dimethylaminoethoxyphenyl]-1,2-diphenyl-1 butene]
cellular reductions (viable cell number) (BT474 cells): ~25% | cellular reductions (viable cell number) (MCF-7/HER2 cells): ~25% | reduction in viable cell number (MCF-7 cells): ~50%
